Test results: PMC6193938, “Characterization of a novel AICARFT inhibitor which potently elevates ZMP and has anti-tumor activity in murine models” (Scientific Reports, 2018)

How the values were obtained:
FER = target: T1, FER (Homo sapiens, UniProt P16591); assay: CEREP protein kinase assay; format: biochemical
T1 construct: purchased CEREP Panlabs (Eurofins)

A9 murine cell line = assay: In vitro proliferation assay (Alamar Blue); format: cell-based
Method: Cells lines were acquired from cell banks, see supplemental material, grown using the cell banks recommended culture conditions (Supplemental Table 3). In some experiments noted “low folate” the cells were washed and grown in folate free RPMI-1640 media (Gibco #27016-021) supplemented with 5 ml 1 M Hepes, 5 ml 100 mM Na pyruvate, 2.5 mg/ml glucose and 10% defined FBS (Hyclone #SH30070) per 500 mL media for 5–7 days to deplete intracellular folate levels prior to the start of the experiment. Where noted, cells were maintained in complete “high folate” RPMI-1640 media (ATCC #30-2001) with 10% defined FBS to contrast with the low folate conditions.
Cells were cultured using recommended culture conditions unless noted otherwise (Supplemental Table 3). Cells were plated, dosed with compound and incubated at 37 °C for approximately 2 doubling times as determined for each cell line. Cell Titer Glo (Promega) assay was used to measure proliferation according to manufacturer’s recommendations by measuring luminescence with Flexstation3 (Molecular Devices) with 500 ms integration time. […]
For a limited number of cell lines, compound dosing was performed under high or low folate conditions with cell viability being determined with Alamar Blue rather than an ATP dependent assay. […] The % inhibition for each sample was calculated and fit as described above.

FAK = target: T2, FAK (Homo sapiens, UniProt Q05397); assay: CEREP protein kinase assay; format: biochemical
T2 construct: purchased CEREP Panlabs (Eurofins)
T2 sequence (Q05397 whole entry): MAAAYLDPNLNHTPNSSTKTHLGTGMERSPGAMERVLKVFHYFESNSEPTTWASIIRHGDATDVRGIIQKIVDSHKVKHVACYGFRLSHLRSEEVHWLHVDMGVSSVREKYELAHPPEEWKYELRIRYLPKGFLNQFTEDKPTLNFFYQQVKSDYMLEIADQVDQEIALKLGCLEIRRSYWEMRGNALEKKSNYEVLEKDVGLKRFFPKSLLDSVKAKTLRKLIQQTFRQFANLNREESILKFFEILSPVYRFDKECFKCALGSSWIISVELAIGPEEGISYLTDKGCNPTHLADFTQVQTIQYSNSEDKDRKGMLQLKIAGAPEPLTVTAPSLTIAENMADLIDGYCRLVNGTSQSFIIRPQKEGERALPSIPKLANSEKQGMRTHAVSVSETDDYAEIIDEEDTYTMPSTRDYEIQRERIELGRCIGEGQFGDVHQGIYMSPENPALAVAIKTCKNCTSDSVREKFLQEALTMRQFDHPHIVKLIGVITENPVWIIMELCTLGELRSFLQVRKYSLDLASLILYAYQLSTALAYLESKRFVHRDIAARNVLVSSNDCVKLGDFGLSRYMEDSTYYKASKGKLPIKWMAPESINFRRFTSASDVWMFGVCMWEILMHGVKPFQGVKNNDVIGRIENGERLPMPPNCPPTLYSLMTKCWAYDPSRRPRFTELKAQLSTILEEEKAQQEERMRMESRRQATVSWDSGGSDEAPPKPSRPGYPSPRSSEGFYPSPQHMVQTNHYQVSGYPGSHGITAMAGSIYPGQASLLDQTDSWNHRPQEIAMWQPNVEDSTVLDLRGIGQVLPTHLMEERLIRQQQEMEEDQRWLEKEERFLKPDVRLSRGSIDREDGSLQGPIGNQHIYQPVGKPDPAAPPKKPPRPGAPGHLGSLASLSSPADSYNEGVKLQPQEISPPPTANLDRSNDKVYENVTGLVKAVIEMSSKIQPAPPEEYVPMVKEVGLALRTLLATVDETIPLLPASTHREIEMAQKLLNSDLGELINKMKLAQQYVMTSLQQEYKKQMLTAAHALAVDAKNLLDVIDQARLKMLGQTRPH

TTK = target: T3, TTK (Homo sapiens, UniProt P33981); assay: CEREP protein kinase assay; format: biochemical
T3 construct: purchased CEREP Panlabs (Eurofins)
T3 sequence (P33981 1-857): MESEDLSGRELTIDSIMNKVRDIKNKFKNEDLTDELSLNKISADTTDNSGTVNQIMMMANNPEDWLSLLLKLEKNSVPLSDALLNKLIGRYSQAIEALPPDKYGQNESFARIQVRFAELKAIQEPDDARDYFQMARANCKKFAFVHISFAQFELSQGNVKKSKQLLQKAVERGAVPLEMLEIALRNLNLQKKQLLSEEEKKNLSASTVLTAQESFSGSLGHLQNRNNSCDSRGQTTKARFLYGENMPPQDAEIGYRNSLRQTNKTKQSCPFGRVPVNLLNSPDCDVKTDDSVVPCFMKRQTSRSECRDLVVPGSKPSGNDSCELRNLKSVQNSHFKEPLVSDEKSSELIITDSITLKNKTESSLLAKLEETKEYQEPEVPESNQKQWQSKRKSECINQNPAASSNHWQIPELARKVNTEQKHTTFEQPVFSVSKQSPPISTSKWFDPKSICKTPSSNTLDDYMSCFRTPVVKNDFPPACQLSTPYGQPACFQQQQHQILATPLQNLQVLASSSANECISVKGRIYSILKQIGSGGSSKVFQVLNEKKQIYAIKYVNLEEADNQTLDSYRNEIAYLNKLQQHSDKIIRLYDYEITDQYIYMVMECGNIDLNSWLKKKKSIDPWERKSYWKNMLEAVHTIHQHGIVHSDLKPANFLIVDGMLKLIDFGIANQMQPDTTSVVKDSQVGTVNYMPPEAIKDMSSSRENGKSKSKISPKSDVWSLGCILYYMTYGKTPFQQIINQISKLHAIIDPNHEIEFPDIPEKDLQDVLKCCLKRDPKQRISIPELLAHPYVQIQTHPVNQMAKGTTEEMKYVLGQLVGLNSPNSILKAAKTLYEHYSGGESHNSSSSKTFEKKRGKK

HIPK2 = target: T4, HIPK2 (Homo sapiens, UniProt Q9H2X6); assay: CEREP protein kinase assay; format: biochemical
T4 construct: purchased CEREP Panlabs (Eurofins)
T4 sequence (Q9H2X6 whole entry): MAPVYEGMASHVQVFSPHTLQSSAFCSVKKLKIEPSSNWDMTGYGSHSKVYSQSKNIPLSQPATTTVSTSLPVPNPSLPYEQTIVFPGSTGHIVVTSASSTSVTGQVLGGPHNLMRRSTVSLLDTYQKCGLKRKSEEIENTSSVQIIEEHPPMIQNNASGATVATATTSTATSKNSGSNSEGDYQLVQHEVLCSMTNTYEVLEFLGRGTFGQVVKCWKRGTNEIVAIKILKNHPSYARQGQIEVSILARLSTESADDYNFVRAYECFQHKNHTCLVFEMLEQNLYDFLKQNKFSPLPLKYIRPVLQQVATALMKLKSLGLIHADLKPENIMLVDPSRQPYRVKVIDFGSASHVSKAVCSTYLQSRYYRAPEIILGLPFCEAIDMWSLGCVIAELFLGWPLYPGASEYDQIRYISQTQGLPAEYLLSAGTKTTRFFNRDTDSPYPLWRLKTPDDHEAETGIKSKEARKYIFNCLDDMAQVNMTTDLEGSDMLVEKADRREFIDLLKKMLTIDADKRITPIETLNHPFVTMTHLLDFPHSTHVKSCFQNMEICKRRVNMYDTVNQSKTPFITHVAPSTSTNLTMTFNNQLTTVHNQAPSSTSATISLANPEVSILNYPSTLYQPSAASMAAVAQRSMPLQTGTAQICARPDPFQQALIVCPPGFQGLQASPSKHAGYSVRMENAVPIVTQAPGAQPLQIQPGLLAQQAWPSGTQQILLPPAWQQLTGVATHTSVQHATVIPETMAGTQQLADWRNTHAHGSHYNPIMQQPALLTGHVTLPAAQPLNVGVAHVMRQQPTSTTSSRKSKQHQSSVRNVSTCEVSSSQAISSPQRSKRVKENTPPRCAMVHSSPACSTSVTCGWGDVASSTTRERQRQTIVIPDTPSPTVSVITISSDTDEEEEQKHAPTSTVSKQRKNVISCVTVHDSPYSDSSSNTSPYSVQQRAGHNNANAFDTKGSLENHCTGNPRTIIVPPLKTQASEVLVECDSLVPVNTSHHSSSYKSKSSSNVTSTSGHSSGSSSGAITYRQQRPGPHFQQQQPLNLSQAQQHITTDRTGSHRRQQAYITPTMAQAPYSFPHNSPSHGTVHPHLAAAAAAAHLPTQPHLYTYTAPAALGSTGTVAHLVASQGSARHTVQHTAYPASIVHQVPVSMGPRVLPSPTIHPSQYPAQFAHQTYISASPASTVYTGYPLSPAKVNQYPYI

CHK1 = target: T5, CHK1 (Homo sapiens, UniProt O14757); assay: CEREP protein kinase assay; format: biochemical
T5 construct: purchased CEREP Panlabs (Eurofins)
T5 sequence (O14757 1-476): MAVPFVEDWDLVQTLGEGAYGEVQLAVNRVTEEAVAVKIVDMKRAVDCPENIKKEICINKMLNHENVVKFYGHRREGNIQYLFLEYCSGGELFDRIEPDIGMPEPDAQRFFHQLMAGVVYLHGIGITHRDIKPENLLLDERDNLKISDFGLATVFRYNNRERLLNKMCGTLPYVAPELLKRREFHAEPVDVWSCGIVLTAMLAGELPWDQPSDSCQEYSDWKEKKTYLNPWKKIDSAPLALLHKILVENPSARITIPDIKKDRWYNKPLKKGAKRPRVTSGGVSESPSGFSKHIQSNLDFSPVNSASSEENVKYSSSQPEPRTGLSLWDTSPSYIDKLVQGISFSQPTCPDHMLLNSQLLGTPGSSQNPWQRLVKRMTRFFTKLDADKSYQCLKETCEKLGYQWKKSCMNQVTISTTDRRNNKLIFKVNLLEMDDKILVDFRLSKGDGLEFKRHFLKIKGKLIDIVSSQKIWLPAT

JNK3 = target: T6, JNK3 (Homo sapiens, UniProt P53779); assay: CEREP protein kinase assay; format: biochemical
T6 construct: purchased CEREP Panlabs (Eurofins)
T6 sequence (P53779 whole entry): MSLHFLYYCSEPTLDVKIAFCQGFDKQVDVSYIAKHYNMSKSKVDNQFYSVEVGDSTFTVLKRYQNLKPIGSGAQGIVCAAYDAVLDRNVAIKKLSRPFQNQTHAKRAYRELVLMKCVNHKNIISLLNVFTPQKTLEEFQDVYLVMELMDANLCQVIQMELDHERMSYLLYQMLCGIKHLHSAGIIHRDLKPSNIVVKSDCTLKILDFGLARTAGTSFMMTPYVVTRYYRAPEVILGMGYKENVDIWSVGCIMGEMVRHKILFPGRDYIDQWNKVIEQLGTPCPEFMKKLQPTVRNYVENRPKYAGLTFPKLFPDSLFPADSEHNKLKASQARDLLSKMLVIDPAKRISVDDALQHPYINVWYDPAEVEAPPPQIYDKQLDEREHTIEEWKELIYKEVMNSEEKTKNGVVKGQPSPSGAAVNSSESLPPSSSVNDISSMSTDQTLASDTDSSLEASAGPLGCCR

T1 sequence (P16591 whole entry): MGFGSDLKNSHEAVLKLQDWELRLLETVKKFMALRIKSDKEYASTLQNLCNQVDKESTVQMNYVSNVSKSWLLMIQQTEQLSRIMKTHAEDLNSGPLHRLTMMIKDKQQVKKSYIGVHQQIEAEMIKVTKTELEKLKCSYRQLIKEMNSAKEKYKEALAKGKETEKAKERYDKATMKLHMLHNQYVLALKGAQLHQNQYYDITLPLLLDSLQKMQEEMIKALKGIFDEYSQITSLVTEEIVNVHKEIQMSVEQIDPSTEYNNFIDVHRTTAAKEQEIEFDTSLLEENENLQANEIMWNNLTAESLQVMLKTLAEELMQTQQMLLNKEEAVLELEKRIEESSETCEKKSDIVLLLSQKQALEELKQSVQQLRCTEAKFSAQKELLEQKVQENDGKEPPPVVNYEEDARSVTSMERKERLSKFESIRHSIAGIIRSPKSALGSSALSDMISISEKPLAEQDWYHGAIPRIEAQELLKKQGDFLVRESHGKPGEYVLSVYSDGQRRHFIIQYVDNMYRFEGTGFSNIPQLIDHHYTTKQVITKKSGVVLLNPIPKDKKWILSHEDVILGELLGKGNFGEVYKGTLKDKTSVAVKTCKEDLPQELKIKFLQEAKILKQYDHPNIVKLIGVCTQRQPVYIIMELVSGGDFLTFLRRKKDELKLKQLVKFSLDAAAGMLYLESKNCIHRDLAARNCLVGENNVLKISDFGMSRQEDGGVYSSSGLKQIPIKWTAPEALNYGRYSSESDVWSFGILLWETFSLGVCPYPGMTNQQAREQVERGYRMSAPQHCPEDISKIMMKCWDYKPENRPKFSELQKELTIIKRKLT

O=c1[nH]ccc2cc(F)c(NS(=O)(=O)c3ccc(N4CC[C@@H](O)C4)s3)cc12 [LSN3213128, N-(6-Fluoro-1-oxo-1,2-dihydroisoquinolin-7-yl)-5-[(3R)-3-hydroxypyrrolidin-1-yl]thiophene-2-sulfonamide]
inhibition at 0.2 µM (FER; @ 0.2 uM): 3.36%
inhibition at 2 µM (FER; @ 2 uM): 18%
inhibition at 20 µM (FER; @ 20 uM): 11.1%
IC50 (A9 murine cell line; Mus musculus, RPMI media): 230 nM
anti-proliferative effect on hypoxanthine supplementation (A9 murine cell line; hypoxanthine): not reversed
inhibition at 0.2 µM (FAK; @ 0.2 uM): -12.7%
inhibition at 2 µM (FAK; @ 2 uM): -4.84%
inhibition at 20 µM (FAK; @ 20 uM): 40.1%
inhibition at 0.2 µM (TTK; @ 0.2 uM): -4.62%
inhibition at 2 µM (TTK; @ 2 uM): 6.44%
inhibition at 20 µM (TTK; @ 20 uM): 18.6%
inhibition at 0.2 µM (HIPK2; @ 0.2 uM): -9.39%
inhibition at 2 µM (HIPK2; @ 2 uM): 6.25%
inhibition at 20 µM (HIPK2; @ 20 uM): 14.1%
inhibition at 0.2 µM (CHK1; @ 0.2 uM): -8.96%
inhibition at 2 µM (CHK1; @ 2 uM): 14.5%
inhibition at 20 µM (CHK1; @ 20 uM): 5.24%
inhibition at 0.2 µM (JNK3; @ 0.2 uM): -0.752%
inhibition at 2 µM (JNK3; @ 2 uM): 19.2%
inhibition at 20 µM (JNK3; @ 20 uM): 76.2%
